We go through 13 molecules from patent EP2809669B1, “FUSED PYRROLEDICARBOXAMIDES AND THEIR USE AS PHARMACEUTICALS” (SANOFI, priority 2012, dated 2013).

For orientation: inhibition in vivo means how much of the control response was suppressed. Low readings indicate a response near the control, high ones a response far below the control. The term IC50 denotes the point on the concentration scale where inhibition reaches its midpoint.

The test system of data set [1] is atrium of the anesthetized pig. Kind of data set: Investigation of the refractory period and the left-atrial vulnerability in the anesthetized pig. The format is in vivo. As to conditions: Sus scrofa, iv; for inhibition in vivo at 0.3 mg/kg / change in vivo at 0.3 mg/kg: 0.3 mg/kg i.v. As to the method: Investigation of the refractory period and the left-atrial vulnerability in the pig
The compounds were tested for prolongation of the refractory period and antiarrhythmic activity on the atrium of the anesthetized pig as described in Knobloch K. et al., Naunyn-Schmiedeberg's Arch. Pharmacol. 2002, 366, 482-487. Here the anti-arrhythmic action relates to the inhibition of the occurrence of episodes of atrial arrhythmias which are induced by a prematurely placed extra-stimulus (S2) in the left atrium (= left-atrial vulnerability). The prolongation of the refractory period (refractoriness) is expressed as the increase in percent of the value of the refractory period 15 min after the end of administration of the test compound vs. the basal value before administration. Mean values of the prolongation of the refractory period are shown from three rates (150/min, 200/min and 250/min). The values for the inhibition of left atrial vulnerability (inhibition of episodes of arrhythmias) in percent refer to three measurements (three time points) before administration of the test compound vs. at least three measurements during the first hour after administration.
In Table 16, the action of compounds of the formula I from the examples above on the refractory period of the left atrium and their antiarrhythmic activity in the anesthetized pig after intravenous (i.v.) administration of the described dose is shown.

The target in a further data set is T1, hERG channel (Homo sapiens, UniProt Q12809).
T1 construct: expressed in transfected cells
The experiment in a line: Determination of the effect on the hERG channel in CHO cells (whole-cell patch clamp). The format is cell-based. As to conditions: CHO cells stably expressing hERG, room temperature, read-out: IC50 value [µM] for hERG inhibition. As to the method: Determination of the effect on the hERG channel in CHO cells
An inhibition of the hERG (human Ether-a-go-go-Related Gene) potassium channel is unwanted because it can lead to dangerous arrhythmias. The effect of compounds of the formula I on the cloned human cardiac hERG channel was evaluated in an in vitro model using a whole-cell patch-clamping technique. CHO (Chinese hamster ovary) cells stably expressing hERG, the potassium channel underlying IKr currents in human hearts, were grown in HAM's F-12 media supplemented with 10 % fetal bovine serum, 1 x penicillin/streptomycin and 500 µg/ml G418 (Invitrogen, Carlsbad, CA, USA) in an atmosphere of 95 % air and 5 % carbon dioxide. Cells used for patch-clamping were seeded on glass or plastic coverslips 12 to 36 hours before use. hERG channel currents were recorded at room temperature using the whole-cell configuration of the patch clamp technique with an Axopatch 200B amplifier (Axon Instruments, Foster City, CA, USA). Briefly, electrodes (3 to 6 MΩ resistance) were fashioned from TW150F glass capillary tubes (World Precision Instruments, Sarasota, FL, USA) and filled with pipette solution (containing 120 mM potassium aspartate, 20 mM potassium chloride, 4 mM adenosine triphosphate disodium salt, 5 mM HEPES, 1 mM magnesium chloride; pH adjusted to 7.2 with potassium hydroxide). hERG currents were initiated by a positive voltage pulse (20 mV) followed by a negative pulse (-40 mV) and were recorded for off-line analyses. Once hERG current from a cell perfused with external solution (containing 130 mM sodium chloride, 5 mM potassium chloride, 2.8 mM sodium acetate, 1 mM magnesium chloride, 10 mM HEPES, 10 mM glucose, 1 mM calcium chloride; pH adjusted to 7.4 with sodium hydroxide) without the test compound, i.e. control solution, was stabilized, the cell was perfused with external solution containing the test compound at specific concentrations. For each concentration from each cell, peak amplitude of the steady-state hERG tail current at -40 mV was measured in picoAmpere (pA). The peak amplitude in pA for each concentration (up to a maximum concentration of 10 µM) was compared with that for the control solution from the same cell and expressed as percent value of the control. From the percent values at multiple concentrations, IC50 values for inhibition of hERG can be determined.

A further data set relates to upper airway. Kind of data set: Effect on upper airway collapsibility in the anesthetized pig (negative pressure challenge). The data set is classed as in vivo. The note with it: negative pressure -150 mbar. From the text:
Effect on upper airway collapsibility in the pig Pharmacological efficacy against obstructive apneas was investigated in chloralose-urethane anesthetized pigs (weight range 20 to 35 kg), a large-animal model for obstructive apneas. Negative pressure generated by a negative pressure device was applied with a cannula to the upper part of the trachea for at least three breaths so that the upper airway was exposed to the negative pressure generated by the device. This caused an upper airway collapse as in an obstructive apnea in control animals treated with vehicle only, and in animals of the treatment group before the test compound was administered (baseline situation). Different levels of negative pressure were used to cause a collapse of the upper airway (-50 mbar, -100 mbar and -150 mbar). These negative pressure challenges were repeated several times before vehicle or test compound was given, and at regular intervals after administration of vehicle or test compound. Whether the upper airway was collapsed or open, was judged by airflow measurement and by the tracheal pressure in the cannula inserted into the upper trachea. In case the upper airway was collapsed by the negative pressure, airflow to the negative pressure device was close to zero. As a second parameter tracheal pressure approached the negative pressure generated by the device during upper airway collapse. Test compounds were administered by intravenous bolus injection. After administration of an effective test compound the upper airway was open during the negative pressure challenges, i.e. not collapsed, as indicated by airflow to the negative pressure device and the fact that tracheal pressure now approached atmospheric pressure in the inspiratory phase where upper airway muscles are activated. In vehicle-treated controls upper airway collapse occurred at every negative pressure challenge at -50 mbar, -100 mbar and -150 mbar. In Table 17, the time after administration of compounds of the formula I from the examples above is shown during which no upper airway collapse occurred (time of inhibition of collapsibility) at a negative pressure of -150 mbar. […]

The mark [2] stands for this setting: infusion over 1 h, first hour after administration vs. before.
Where [3] appears, read: 0.25 h, infusion over 1 h, 15 min after end of administration vs. basal value, mean of three rates (150/min, 200/min, 250/min), read-out: % Prolongation of left atrial refractory period.
Setting [4] is: 0.25 h, bolus injection, 15 min after end of administration vs. basal value, mean of three rates (150/min, 200/min, 250/min), read-out: % Prolongation of left atrial refractory period.
The mark [5] stands for this setting: 1 h, bolus injection, first hour after administration vs. before.
Setting [6] is: 100 µg/kg intravenous bolus injection.

Like-named read-outs stand apart in the source and are kept apart here.

T1 sequence (Q12809 whole entry): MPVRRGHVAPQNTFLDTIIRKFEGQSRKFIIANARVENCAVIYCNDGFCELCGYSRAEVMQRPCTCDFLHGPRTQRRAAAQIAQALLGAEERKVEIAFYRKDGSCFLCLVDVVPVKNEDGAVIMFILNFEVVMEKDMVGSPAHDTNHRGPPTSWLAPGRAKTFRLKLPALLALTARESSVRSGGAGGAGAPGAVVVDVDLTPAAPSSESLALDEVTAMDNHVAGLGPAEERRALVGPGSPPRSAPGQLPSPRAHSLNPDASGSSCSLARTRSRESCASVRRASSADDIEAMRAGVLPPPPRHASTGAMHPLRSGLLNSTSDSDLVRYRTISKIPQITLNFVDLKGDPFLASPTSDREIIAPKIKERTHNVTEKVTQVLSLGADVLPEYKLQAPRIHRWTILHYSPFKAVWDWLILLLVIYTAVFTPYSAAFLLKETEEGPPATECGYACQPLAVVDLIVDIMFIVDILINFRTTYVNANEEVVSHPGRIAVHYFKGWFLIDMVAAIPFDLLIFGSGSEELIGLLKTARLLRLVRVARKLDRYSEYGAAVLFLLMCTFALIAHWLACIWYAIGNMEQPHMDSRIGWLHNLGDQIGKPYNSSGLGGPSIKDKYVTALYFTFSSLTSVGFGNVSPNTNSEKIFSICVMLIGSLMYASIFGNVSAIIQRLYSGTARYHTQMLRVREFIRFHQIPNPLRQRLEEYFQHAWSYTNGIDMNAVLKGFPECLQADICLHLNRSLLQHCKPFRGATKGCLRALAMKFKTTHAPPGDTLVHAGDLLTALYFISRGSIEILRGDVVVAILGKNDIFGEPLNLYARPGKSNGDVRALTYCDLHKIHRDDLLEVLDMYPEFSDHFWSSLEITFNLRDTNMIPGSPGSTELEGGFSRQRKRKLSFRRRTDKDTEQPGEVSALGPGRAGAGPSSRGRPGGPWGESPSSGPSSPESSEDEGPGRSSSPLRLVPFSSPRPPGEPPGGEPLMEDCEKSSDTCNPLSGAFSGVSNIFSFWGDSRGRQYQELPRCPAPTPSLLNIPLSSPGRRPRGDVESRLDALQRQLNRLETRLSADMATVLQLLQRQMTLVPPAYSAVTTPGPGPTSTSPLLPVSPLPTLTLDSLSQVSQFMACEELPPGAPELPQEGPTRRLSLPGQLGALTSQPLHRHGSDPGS

For the molecule `CC[C@@H](NC(=O)c1cc(C(=O)N2CCC[C@@H]2C)n2c1COCC2)c1ccccc1` [16a, 6-((S)-2-Methyl-pyrrolidine-1-carbonyl)-3,4-dihydro-1H-pyrrolo[2,1-c][1,4]oxazine-8-carboxylic acid ((R)-1-phenyl-propyl)-amide], the inhibition in vivo at 0.3 mg/kg in data set [1] (setting [2]) is 91%. Besides, in data set [1] (setting [3]), the change in vivo at 0.3 mg/kg is 40%. On hERG channel, the IC50 is greater than 10 µM.
For `CC[C@@H](NC(=O)c1cc(C(=O)N2CCC[C@@H]2C)n2c1COCC2)c1cnc(OC)c(Cl)c1` [16b, 6-((S)-2-Methyl-pyrrolidine-1-carbonyl)-3,4-dihydro-1H-pyrrolo[2,1-c][1,4]oxazine-8-carboxylic acid [(R)-1-(5-chloro-6-methoxy-pyridin-3-yl)-propyl]-amide], in data set [1] (setting [4]), the change in vivo at 0.3 mg/kg turned out to be 21%. At 0.3 mg/kg the inhibition in vivo in data set [1] (setting [5]) was 91%. The IC50 at hERG channel was greater than 10 µM.
For `CC[C@@H](NC(=O)c1cc(C(=O)N2CCC[C@@H]2C)n2c1COCC2)c1ccc(C(F)(F)F)c(Cl)c1` [16c, 6-((S)-2-Methyl-pyrrolidine-1-carbonyl)-3,4-dihydro-1H-pyrrolo[2,1-c][1,4]oxazine-8-carboxylic acid [(R)-1-(3-chloro-4-trifluoromethyl-phenyl)-propyl]-amide], the change in vivo at 0.03 mg/kg in data set [1] (0.25 h, 0.03 mg/kg i.v., bolus injection, 15 min after end of administration vs. basal value, mean of three rates (150/min, 200/min, 250/min), read-out: % Prolongation of left atrial refractory period) was determined as 12%. In addition, at 0.03 mg/kg the inhibition in vivo in data set [1] (1 h, 0.03 mg/kg i.v., bolus injection, first hour after administration vs. before) was 65%. Also, the IC50 on hERG channel was greater than 10 µM.
For `CC[C@@H](NC(=O)c1cc(C(=O)N2CCC[C@@H]2C)n2c1COCC2)c1ccc(Cl)c(Cl)c1` [16ci, 6-((S)-2-Methyl-pyrrolidine-1-carbonyl)-3,4-dihydro-1H-pyrrolo[2,1-c][1,4]oxazine-8-carboxylic acid [(R)-1-(3,4-dichloro-phenyl)-propyl]-amide], the IC50 at hERG channel is roughly 10 µM.
In the case of `CC[C@@H](NC(=O)c1cc(C(=O)N2CCC[C@@H]2C)n2c1COCC2)c1ccc(C#N)c(Cl)c1` [16d, 6-((S)-2-Methyl-pyrrolidine-1-carbonyl)-3,4-dihydro-1H-pyrrolo[2,1-c][1,4]oxazine-8-carboxylic acid [(R)-1-(3-chloro-4-cyano-phenyl)-propyl]-amide], the change in vivo at 0.3 mg/kg in data set [1] (setting [4]) is 24%. In addition, in data set [1] (setting [5]), the inhibition in vivo at 0.3 mg/kg was determined as 100%. Also, the IC50 on hERG channel is greater than 10 µM.
In data set [1] (setting [2]), `CC[C@@H](NC(=O)c1cc(C(=O)N2CCC[C@@H]2C)n2c1COCC2)c1ccc(C(F)(F)F)nc1` [16e, 6-((S)-2-methyl-pyrrolidine-1-carbonyl)-3,4-dihydro-1H-pyrrolo[2,1-c][1,4]oxazine-8-carboxylic acid [(R)-1-(6-trifluoromethyl-pyridin-3-yl)-propyl]-amide] yielded an inhibition in vivo at 0.3 mg/kg of 84%. Moreover, the change in vivo at 0.3 mg/kg in data set [1] (setting [3]) is 38%. On hERG channel, the IC50 is greater than 10 µM.
As to `CC[C@@H](NC(=O)c1cc(C(=O)N[C@H](C)c2ccc(F)cc2)n2c1COCC2)c1ccc(C(F)(F)F)cc1` [16eb, 3,4-Dihydro-1H-pyrrolo[2,1-c][1,4]oxazine-6,8-dicarboxylic acid 6-{[(R)-1-(4-fluoro-phenyl)-ethyl]-amide} 8-{[(R)-1-(4-trifluoromethyl-phenyl)-propyl]-amide}], at hERG channel, the IC50 is greater than 1 µM.
Regarding `CC[C@@H](NC(=O)c1cc(C(=O)N2CCC[C@@H]2C)n2c1COCC2)c1ccc(C(F)(F)F)cc1` [16f, 6-((S)-2-Methyl-pyrrolidine-1-carbonyl)-3,4-dihydro-1H-pyrrolo[2,1-c][1,4]oxazine-8-carboxylic acid [(R)-1-(4-trifluoromethyl-phenyl)-propyl]-amide], the change in vivo at 1 mg/kg in data set [1] (0.25 h, 1.0 mg/kg i.v., bolus injection, 15 min after end of administration vs. basal value, mean of three rates (150/min, 200/min, 250/min), read-out: % Prolongation of left atrial refractory period) came out at 19%. In data set [1] (1 h, 1.0 mg/kg i.v., bolus injection, first hour after administration vs. before), this molecule gave an inhibition in vivo at 1 mg/kg of 73%.
Regarding `CC[C@@H](NC(=O)c1cc(C(=O)N[C@H](C)c2ccc(F)cc2)n2c1COCC2)c1ccc(C(F)(F)F)nc1` [16g, 3,4-Dihydro-1H-pyrrolo[2,1-c][1,4]oxazine-6,8-dicarboxylic acid 6-{[(R)-1-(4-fluorophenyl)-ethyl]-amide}8-{[(R)-1-(6-trifluoromethyl-pyridin-3-yl)-propyl]-amide}], the 50% inhibitory concentration (IC50) on hERG channel is greater than 10 µM.
Take `CC[C@@H](NC(=O)c1cc(C(=O)N[C@H](CC)c2ccccc2)n2c1COCC2)c1ccccc1` [16i, 3,4-Dihydro-1H-pyrrolo[2,1-c][1,4]oxazine-6,8-dicarboxylic acid bis-[((R)-1-phenylpropyl)-amide]]: the “Time of inhibition of collapsibility (at -150 mbar)” value in the data set with upper airway (10 µg/kg intravenous bolus injection) is listed as “for 90 min”. For the same molecule, at hERG channel, the IC50 was greater than 10 µM.
Turning to `CC[C@@H](NC(=O)c1cc(C(=O)N[C@H](CC)c2ccc(OC)nc2)n2c1COCC2)c1ccccc1` [16j, 3,4-Dihydro-1H-pyrrolo[2,1-c][1,4]oxazine-6,8-dicarboxylic acid 6-{[(R)-1-(6-methoxy-pyridin-3-yl)-propyl]-amide}8-[((R)-1-phenyl-propyl)-amide]], the “Time of inhibition of collapsibility (at -150 mbar)” value with upper airway (setting [6]) is given as “for 120 min”. Besides, the IC50 at hERG channel is greater than 10 µM.
The matching figures for `CCOC(=O)CNC(=O)c1cc(C(=O)N[C@H](CC)c2ccccc2)c2n1CCOC2` [16k, {[8-((R)-1-Phenyl-propylcarbamoyl)-3,4-dihydro-1H-pyrrolo[2,1-c][1,4]oxazine-6-carbonyl]-amino}-acetic acid ethyl ester]: “for >240 min” and greater than 10 µM.
Take `CC[C@@H](NC(=O)c1cc(C(=O)N2CCC[C@@H]2C(F)(F)F)n2c1COCC2)c1ccc(C(F)(F)F)nc1` [16o, 6-((R)-2-Trifluoromethyl-pyrrolidine-1-carbonyl)-3,4-dihydro-1H-pyrrolo[2,1-c][1,4]oxazine-8-carboxylic acid [(R)-1-(6-trifluoromethyl-pyridin-3-yl)-propyl]-amide]: in data set [1] (setting [4]), the change in vivo at 0.3 mg/kg came out at 45%. Moreover, the inhibition in vivo at 0.3 mg/kg in data set [1] (setting [5]) came to 71%.
